Data reported in US10500217B2 (LESLIE RAY MATTHEWS, M.D., LLC, priority 2018, dated 2019).

Tested on: Glial cells (DBTRG-05MG; CRL-2020)
Experiment: Lactate dehydrogenase (LDH) cell death assay: percentage cell survival of glia cells with or without H2O2 exposure
Assay type: cell-based, human
Conditions: for Percentage Cell Survival (% ± SD), H202 Given Last (30 min before H202 given/pre-treatment) / Percentage Cell Survival (% ± SD), H202 (added 30 min after): H2O2 0.25M about 30 min after treatment; for Percentage Cell Survival (% ± SD), H202 Given 1st (30 min after H202 Given, mimics acute injury) / Percentage Cell Survival (% ± SD), H202 (added 30 min before): H2O2 0.25M about 30 min before treatment; for Percentage Cell Survival (% ± SD), Control: control (PBS) instead of H2O2; for Percentage Cell Survival (% ± SD), H202 given (30 min after treatment with Vitamin D) / Percentage Cell Survival (% ± SD), H202 Given (30 min before treatment with Vitamin D) / Percentage Cell Survival (% ± SD), Control (PBS): Table 3; for Percentage Cell Survival (% ± SD), H202 given (30 min after treatment with Vitamin D): H2O2 0.25M 30 min after treatment; for Percentage Cell Survival (% ± SD), H202 Given (30 min before treatment with Vitamin D): H2O2 0.25M 30 min before treatment; for Percentage Cell Survival (% ± SD), Control (PBS): no H2O2
Description: Glial cells were purchased from ATCC (DBTRG-05MG; CRL-2020) and were derived from the brain of a […] with glioblastoma. […] Glial cells were subcultured at a ratio of about 1:4 every 2 to 3 days. Cell death was measured by the CytoTox 96 Non-Radioactive Cytotoxicity Assay according to the manufacturer's instructions (Promega, Madison, Wis.). Culture medium (500 μl) was recovered from and incubated for about 30 min in the dark with a buffer containing NAD+, lactate, and tetrazolium. Lactate Dehydrogenase (LDH) converts lactate to pyruvate, generating NADH which reduces tetrazolium (yellow) to formazan (red), which is detected by […] (490 nm). LDH release, a marker for cell death, was expressed as a percentage of the LDH in the medium over the total LDH. Data was analyzed using a two-tailed t-test after applying ANOVA to the data. Differences were considered significant when p<0.01. Glia cells (10^6 cells) were plated in triplicates in 6-well plates. […] Percentage cell survival was calculated about 24 hours later using LDH assay. […] Glia cells (10^6 cells) were plated in triplicates in 6-well plates. […] Percentage cell survival was calculated about 24 hours later using LDH assay. […] Glia cells (10^6 cells) were plated in triplicates in 6-well plates. […] Percentage cell survival was calculated about 24 hours later using LDH assay.

[1] = Table 1, survival about 24 h later, 3 experiments
[2] = Table 2, Vitamin D3 (1/5), Hsp72 (1/5), Glutathione 200 mg/ml, 24 h, 4 experiments

Molecule: C=C1CC[C@H](O)C/C1=C/C=C1\CCC[C@]2(C)[C@@H]([C@H](C)CCCC(C)C)CC[C@@H]12 [Vitamin D3, Cholecalciferol]
- Percentage Cell Survival (% ± SD), H202 Given Last (30 min before H202 given/pre-treatment) [1]: 28.56 ± 8.9 %
- Percentage Cell Survival (% ± SD), H202 Given 1st (30 min after H202 Given, mimics acute injury) [1]: 15.27 ± 7.4 %
- Percentage Cell Survival (% ± SD), Control [1]: 94.64 ± 4.6%
- Percentage Cell Survival (% ± SD), H202 (added 30 min after) [2]: 12.68 ± 3.5 %
- Percentage Cell Survival (% ± SD), H202 (added 30 min before) [2]: 10.36 ± 2.3 %
- Percentage Cell Survival (% ± SD), Control [2]: 97.28 ± 4.3%
- Percentage Cell Survival (% ± SD), H202 given (30 min after treatment with Vitamin D) (Vitamin D3 5 ng/m1, 24 h): 9.75 ± 3.6%
- Percentage Cell Survival (% ± SD), H202 Given (30 min before treatment with Vitamin D) (Vitamin D3 5 ng/m1, 24 h): 6.22 ± 2.8%
- Percentage Cell Survival (% ± SD), Control (PBS) (Vitamin D3 5 ng/m1, 24 h): 96.89 ± 4.5%
- Percentage Cell Survival (% ± SD), H202 given (30 min after treatment with Vitamin D) (Vitamin D3 25 ng/m1, 24 h): 13.09 ± 2.9 %
- Percentage Cell Survival (% ± SD), H202 Given (30 min before treatment with Vitamin D) (Vitamin D3 25 ng/m1, 24 h): 10.18 ± 2.2 %
- Percentage Cell Survival (% ± SD), Control (PBS) (Vitamin D3 25 ng/m1, 24 h): 98.56 ± 7.9%
- Percentage Cell Survival (% ± SD), H202 given (30 min after treatment with Vitamin D) (Vitamin D3 50 ng/m1, 24 h): 28.56 ± 3.9 %
- Percentage Cell Survival (% ± SD), H202 Given (30 min before treatment with Vitamin D) (Vitamin D3 50 ng/m1, 24 h): 15.27 ± 4.4 %
- Percentage Cell Survival (% ± SD), Control (PBS) (Vitamin D3 50 ng/m1, 24 h): 91.18 ± 6.8%
- Percentage Cell Survival (% ± SD), H202 Given (30 min before treatment with Vitamin D) (Vitamin D3 75 ng/m1, 24 h): 22.94 ± 3.8 %
- Percentage Cell Survival (% ± SD), Control (PBS) (Vitamin D3 75 ng/m1, 24 h): 95.82 ± 6.2%
- Percentage Cell Survival (% ± SD), H202 given (30 min after treatment with Vitamin D) (Vitamin D3 100 ng/m1, 24 h): 60.11 ± 7.2 %
- Percentage Cell Survival (% ± SD), H202 Given (30 min before treatment with Vitamin D) (Vitamin D3 100 ng/m1, 24 h): 28.99 ± 6.9 %
- Percentage Cell Survival (% ± SD), Control (PBS) (Vitamin D3 100 ng/m1, 24 h): 97.41 ± 8.4%

Molecule: Hsp72: Endotoxin-free recombinant Hsp72 produced using the baculovirus expression vector system and expressed in insect cells
- Percentage Cell Survival (% ± SD), H202 Given Last (30 min before H202 given/pre-treatment) [1]: 48.54 ± 6.3 %
- Percentage Cell Survival (% ± SD), H202 Given 1st (30 min after H202 Given, mimics acute injury) [1]: 31.85 ± 9.2 %
- Percentage Cell Survival (% ± SD), Control [1]: 96.88 ± 3.8%
- Percentage Cell Survival (% ± SD), H202 (added 30 min after) [2]: 32.68 ± 7.5 %
- Percentage Cell Survival (% ± SD), H202 (added 30 min before) [2]: 21.57 ± 5.4 %
- Percentage Cell Survival (% ± SD), Control [2]: 95.48 ± 5.1%
